Data on three compounds can be found in patent US9865819B2, “Nitrogen annulated perylene diimides for use as electron transport materials in organic electronic devices” (UTI Limited Partnership, priority 2016, dated 2018).

Series [1] can be described thus: Solubility in CHCl3 by UV-vis absorbance calibration curve. It counts as physicochemical. The following applies: room temperature, 50 mg/mL samples stirred overnight, 0.45 μm filtered, diluted 2000x, Beer-Lambert; for solubility: CHCl3, organic solvent or mixture, thermodynamic from solid. On the procedure: FIG. 2 is a concentration vs absorption plot for determining the solubility of compounds (5) and (7) in CHCl3. A calibration curve was made for each compound by plotting absorbance values of known concentrations. (Dotted lines). In order to determine solubility, compounds (5) and (7) were made into solutions having 50 mg/mL concentration, allowed to stir overnight and then passed through a 0.45 μm syringe filter to remove any undissolved solids. The obtained solutions were then diluted by a factor of 2000 so that their absorbance was in the range of values used for the calibration curves. By using the Beer-Lambert law and the slope of the respective curves, it was determined that the solubility of both (5) and (7) was ˜50 mg/mL. This observation is confirmed by the apparent complete dissolution of 50 mg/mL samples of either (5) or (7) in CHCl3.
With the N annulated PDI derivatives (4), (5) and (7) in hand we set out to study their optical electronic and solubility characteristics. The N-annulated PDI materials bear an extra site for alkyl chain functionalization which was envisioned to modify the solubility and self-assembly characteristics of the materials with respect to the parent PDI compound (2). […] This assertion is supported by ^1H NMR evidence showing that the N—H proton becomes more deshielded upon increasing the solution concentration, typically observed for hydrogen bonding interactions (not shown). […] [54] Importantly, such high organic solvent solubility is achieved without the need for long branched alkyl chains attached to the imide N atoms, chains that are used for almost all reported multi-PDI based materials. Thus, one can envision a wide array of alkyl chains being installed to fine-tune molecular assembly in the solid state, following the so-called “side chain engineering” methodology.

The nature of series [2]: Thermal stability by TGA analysis. Format: physicochemical. On the procedure:
The melting points of compounds (4), (5), and (7) were also determined and provide support for the assertion that compound (4) experiences intermolecular hydrogen bonding interactions. […] Dimerization improves thermal stability.

Converted amounts (≈) assume the structure as drawn.

Usually solubility stands for how much of the substance goes into solution per volume. For orientation: melting point means the temperature, or range, at which the solid turns liquid. Compound `CCC(CC)n1c(=O)c2ccc3c4ccc5c(=O)n(C(CC)CC)c(=O)c6cc7[nH]c8cc(c1=O)c2c3c8c7c4c56` [Compound 4, EP-NH-CAG-PDI] registered a melting point of 235 °C. For the same compound, the solubility in series [1] was less than 1 mg/mL.
On to `CCCCCCn1c2cc3c(=O)n(C(CC)CC)c(=O)c4ccc5c6ccc7c(=O)n(C(CC)CC)c(=O)c8cc1c(c6c78)c2c5c43` [Compound 5, EP-N-Hex-CAG-PDI], for which, in series [1], the solubility is more than 50 mg/mL and the “solubility in CHCl3” value is approximately 50 mg/mL (≈ 79.6 mM).
As for `CCCCCCn1c2cc3c(=O)n(C(CC)CC)c(=O)c4ccc5c6c(-c7cc8c(=O)n(C(CC)CC)c(=O)c9cc%10c%11c(c7c7ccc%12c(=O)n(C(CC)CC)c(=O)c%13cc(c%11c7c%12%13)n%10CCCCCC)c89)cc7c(=O)n(C(CC)CC)c(=O)c8cc1c(c6c78)c2c5c43` [Compound 7, BAY-EP-N-Hex-CAG-PDI], in series [1], the solubility was more than 50 mg/mL and the “solubility in CHCl3” value was approximately 50 mg/mL (≈ 39.9 mM). Also, the “thermally stable up to / decomposition temperature (TGA)” value in series [2] was approximately 425 °C.
